Data set [1] in a line: In vivo pharmacokinetics study in dogs. On the set-up: species or system beagle dogs. From the text: Experimental purposes: To test the drug concentration in plasma of beagle dogs at different times after intravenous and intragastric administration of the test compound by LC/MS/MS using beagle dogs as the experimental animals. To study the pharmacokinetics of the test compound in beagle dogs in vivo and evaluate their pharmacokinetic characteristics.
Two healthy male and two female beagle dogs were divided into two groups according to the principle of similar body weight, with one male and one female in IV group and one male and one female in PO group. Animals were purchased from Beijing Marshall Biotechnology Co., Ltd.
IV group: Appropriate number of samples were weighed and prepared into 1 mg/mL solution respectively, and the mixture was stirred and ultrasonicated to reach a clear state, and the solvent was 10% HP-β-CD, and the pH value was adjusted to 5.74.
PO group: Appropriate amount of the solution prepared in IV group was diluted to 0.2 mg/mL with 10% HP-β-CD, and the pH value was adjusted to 5.8.
Administration: After fasting overnight, IV group was administered intravenously, and the dosage of the test compound was 1 mg/kg; PO group was administered intragastrically, and the dosage of the test compound was 2 mg/kg.
After the beagle dogs in the intravenous injection group were given the test compound respectively, and 200 μL of blood was collected from the peripheral vein at 0.0833, 0.25, 0.5, 1, 2, 4, 6, 8, 12 and 24 hours, and placed in a commercialized anticoagulant tube added with EDTA-K2 in advance. After intragastric administration of the test compound, 200 μL of blood was collected from the peripheral vein at 0.25, 0.5, 1, 2, 4, 6, 8, 12 and 24 hours, respectively, and placed in a commercialized anticoagulant tube added with EDTA-K2 in advance. After centrifugation (3,200 g, 4° C., 10 minutes), the plasma was collected, transferred to a pre-cooled centrifuge tube, quickly frozen in dry ice, and stored in a refrigerator at −60° C. or lower, until LC-MS/MS analysis. Animals were allowed to eat 4 hours after administration. LC/MS/MS method was used to determine the content of the test compound in the plasma of beagle dogs after intravenous and intragastric administration. The linear range of the method was 2.00 to 2000 nM.

A short description of data set [2]: In vivo pharmacokinetic study in mice. Also on record: species or system female Balb/c mice. From the text: Experimental purposes: To test the drug concentration in plasma of mice at different times after intravenous and intragastric administration of the test compound by LC/MS/MS using female Balb/c mice as the experimental animals. To study the pharmacokinetics of the test compound in mice in vivo and evaluate their pharmacokinetic characteristics.
Experimental animals: 4 healthy female Balb/c mice were divided into 2 groups according to the principle of similar body weight, with 2 mice in each group in IV group and 2 mice in each group in PO group. Animals were purchased from Shanghai Lingchang Biotechnology Co., Ltd.
Appropriate number of samples were weighed and prepared into 1 mg/mL solution respectively, and the mixture was stirred and ultrasonicated to reach a clear state, and the solvent was 15% HP-β-CD.
Administration: After fasting overnight, IV group was administered intravenously, and the dosage of the test compound was 5 mg/kg; PO group was administered intragastrically, and the dosage of the test compound was 10 mg/kg.
After the female Balb/c mice in the intravenous injection group were given the test compound respectively, 30 μL of blood was collected from the saphenous vein at 0.0833, 0.25, 0.5, 1, 2, 4, 8, and 24 hours, and placed in a commercialized anticoagulant tube added with EDTA-K2 in advance. After intragastric administration of the test compound, 30 μL of blood was collected from the saphenous vein at 0.25, 0.5, 1, 2, 4, 8, 12 and 24 hours, respectively, and placed in a commercialized anticoagulant tube added with EDTA-K2 in advance. After centrifugation (3,200 g, 4° C., 10 minutes), the plasma was collected, transferred to a pre-cooled centrifuge tube, quickly frozen in dry ice, and stored in a refrigerator at −60° C. or lower, until LC-MS/MS analysis. Animals were allowed to eat 4 hours after administration. LC/MS/MS method was used to determine the content of the test compound in the plasma of mice after intravenous and intragastric administration. The linear range of the method was 2.00 to 2000 nM.

[3] abbreviates: female, Balb/c, mouse, plasma, iv, i.v. 5 mg/kg.
[4] abbreviates: female, Balb/c, mouse, plasma, po, p.o. 10 mg/kg.

The record followed here is patent US12415799B2, “Indazole-fused cyclic compound” (Zhejiang Yangli Pharmaceutical Technology Co., Ltd., priority 2020, dated 2025).

Each structure is given as a SMILES string.

As to `FCCCN1CC[C@H](Nc2cnc(C3=C(CC(F)(F)F)CCCc4c3ccc3[nH]nc(F)c43)cn2)C1` [Compound 11A], in data set [1] (i.v. 1 mg/kg), the AUC0-last stood at 5.078 µM·h, the Cl was 3.44 mL/min/kg, the T1/2 was determined as 23.1 h and the Vdss amounted to 6.60 L/kg. In data set [1] (p.o. 2 mg/kg), this compound returned an AUC0-last of 7.963 µM·h, a peak concentration (Cmax) of 495 nM and a T1/2 of 19.2 h. Besides, the F % in data set [1] (p.o. 2 mg/kg vs i.v. 1 mg/kg) amounted to 78.2%. In data set [2] (i.v. 5 mg/kg), this compound gave an AUC0-last of 5.27 µM·h, a Cl of 30.2 mL/min/kg, a T1/2 of 5.16 h and a distribution volume (Vdss) of 11.1 L/kg. In data set [2] (p.o. 10 mg/kg), this compound returned an AUC0-last of 5.856 µM·h, a Cmax of 779 nM and a T1/2 of 4.72 h. This compound had a F % in data set [2] (p.o. 10 mg/kg vs i.v. 5 mg/kg) of 55.4%.
Consider `FCCCN1CC(Nc2ccc(C3=C(CC(F)(F)F)CCCc4c3ccc3[nH]nc(F)c43)nc2)C1` [Compound 2], for which, in data set [2] (setting [3]), the area under the curve AUC(0-t) was determined as 8.47 µM·h, the clearance turned out to be 18.3 mL/min/kg and the half-life was 6.85 h. Besides, the Vd in data set [2] (female, Balb/c, mouse, plasma, iv, i.v. 5 mg/kg, read-out: Vdss) is 10.6 L/kg. This compound also returned a bioavailability in data set [2] (female, Balb/c, mouse, plasma, oral, p.o. 10 mg/kg vs i.v. 5 mg/kg) of 71.8%. Further, in data set [2] (setting [4]), the AUC(0-t) stood at 11.7 µM·h, the concentration peaked (Cmax) at 937 nM and the half-life is 7.67 h.
